Where two headings read alike, the source gives them in different places.
How the values were obtained:
[1] = biological target: WNK3 (Homo sapiens, UniProt Q9BYP7); experiment: KINOMEscan; details: read-out: Percent Control
Experimental: (§1) The kinase engagement assay (KINOMEscan®) was performed by DiscoverX assessing binding abilities toward a set of kinases.

[2] = biological target: RSK2(Kin.Dom.1-N-terminal) (Homo sapiens, UniProt P51812); experiment: KINOMEscan; details: read-out: Percent Control
Experimental: as §1

[3] = biological target: ACVR2A (Homo sapiens, UniProt P27037); experiment: KINOMEscan; details: read-out: Percent Control
Experimental: as §1

[4] = biological target: BIKE (Homo sapiens, UniProt Q9NSY1); experiment: KINOMEscan; details: read-out: Percent Control
Experimental: as §1

[5] = biological target: S6K1 (Homo sapiens, UniProt P23443); experiment: KINOMEscan; details: read-out: Percent Control
Experimental: as §1

[6] = biological target: PAK2 (Homo sapiens, UniProt Q13177); experiment: PAK2 degradation in MCF7 and OVCAR3 cells, immunoblot; type: cell-based; design: due to their high expression of both PAK1 and PAK2; endogenous in cells; host or cells: MCF7, OVCAR3
Experimental: […]. Cells were incubated overnight then treated with various concentrations of Pak degraders alone or together with bortezomib or lenalidomide for 24 hours. Protein lysates were harvested at the times specified.
Cells were washed once in PBS and lysed in RIPA buffer (50 mM Tris-HCl, 150 mM NaCl, 0.25% (w/v) sodium deoxycholate, 1% (w/v) NP-40, pH 7.5) containing protease inhibitor cocktail (Roche) and phosphatase inhibitor cocktail (Roche) for 30 minutes on ice. Cell lysates were obtained by centrifugation at 13,500 rpm for 15 minutes at 4° C. BCA protein assay (Thermo Scientific) was used to determine protein concentration then equal amounts of total proteins were separated by SDS-PAGE (Bio-Rad) and transferred to PVDF membrane (Thermo Scientific) at 100V for 2 hours. Membranes were blocked in 5% (w/v) non-fat dry milk in tris-buffered saline with 0.1% Tween-20 (TBS-T) for 1 hour and incubated with primary antibody at 4° C. for overnight. […]
After verifying that BJG-05-039 retained specificity for PAK1, its degradation activity in cells was characterized. First, the PAK1 degrader was evaluated in the breast cancer cell line MCF7 and the ovarian cancer cell line OVCAR3 due to their high expression of both PAK1 and PAK2 and their known dependence on PAK1 (Prudnikova, et al. (2016) Oncogene 35:2178-2185; Shrestha, et al. (2012) Oncogene 31:3397-3408). […]

[7] = biological target: CHEK1 (Homo sapiens, UniProt O14757); experiment: KINOMEscan; details: read-out: Percent Control
Experimental: as §1

[8] = biological target: PIK3CA(C420R) (Homo sapiens, UniProt P42336, C420R); experiment: KINOMEscan; details: read-out: Percent Control
Experimental: as §1

[9] = system: OVCAR3 cells; experiment: Cell proliferation, MTT assay; type: cell-based; details: Homo sapiens, OVCAR-3, OVCAR3 cells, read-out: EC50, anti-proliferative
Experimental: […]. Cell proliferation was assessed by MTT assay. […].
Cells were plated at 2×10^3 cells per well in 96-well plates overnight and treated with various concentrations of Pak degraders for 72 hours. Cell viability was measured by MTT assay and the half maximal inhibitory concentration (IC50) was calculated using GraphPad Prism. Triplicates were performed for each sample and medium alone was used as a blank.
The anti-proliferative effects of PAK1 degradation and inhibition were evaluated. […]. […] […]. […] […].

[10] = biological target: TNNI3K (Homo sapiens, UniProt Q59H18); experiment: KINOMEscan; details: read-out: Percent Control
Experimental: as §1

[11] = biological target: MET(M1250T) (Homo sapiens, UniProt P08581, M1250T); experiment: KINOMEscan; details: read-out: Percent Control
Experimental: as §1

[12] = biological target: EGFR(L858R, T790M) (Homo sapiens, UniProt P00533, L858R/T790M); experiment: KINOMEscan; details: read-out: Percent Control
Experimental: as §1

[13] = biological target: JAK3(JH1domain-catalytic) (Homo sapiens, UniProt P52333); experiment: KINOMEscan; details: read-out: Percent Control
Experimental: as §1

[14] = biological target: CLK2 (Homo sapiens, UniProt P49760); experiment: KINOMEscan; details: read-out: Percent Control
Experimental: as §1

[15] = biological target: YANK2 (Homo sapiens, UniProt Q9NY57); experiment: KINOMEscan; details: read-out: Percent Control
Experimental: as §1

[16] = biological target: MAPKAPK2 (Homo sapiens, UniProt P49137); experiment: KINOMEscan; details: read-out: Percent Control
Experimental: as §1

[17] = biological target: FGFR1 (Homo sapiens, UniProt P11362); experiment: KINOMEscan; details: read-out: Percent Control
Experimental: as §1

[18] = biological target: TTK (Homo sapiens, UniProt P33981); experiment: KINOMEscan; details: read-out: Percent Control
Experimental: as §1

[19] = biological target: TAOK2 (Homo sapiens, UniProt Q9UL54); experiment: KINOMEscan; details: read-out: Percent Control
Experimental: as §1

[20] = biological target: CLK3 (Homo sapiens, UniProt P49761); experiment: KINOMEscan; details: read-out: Percent Control
Experimental: as §1

[21] = biological target: PAK4 (Homo sapiens, UniProt O96013); experiment: Z'-LYTE FRET kinase inhibition assay; type: biochemical; design: purchased Invitrogen
Source text: […]. […] […].

[22] = biological target: SGK3 (Homo sapiens, UniProt Q96BR1); experiment: KINOMEscan; details: read-out: Percent Control
Experimental: as §1

[23] = biological target: PRKR (Homo sapiens, UniProt P19525); experiment: KINOMEscan; details: read-out: Percent Control
Experimental: as §1

[24] = biological target: FLT3(D835V) (Homo sapiens, UniProt P36888, D835V); experiment: KINOMEscan; details: read-out: Percent Control
Experimental: as §1

[25] = biological target: SRPK2 (Homo sapiens, UniProt P78362); experiment: KINOMEscan; details: read-out: Percent Control
Experimental: as §1

Sequence of PIK3CA(C420R) (P42336 whole entry C420R): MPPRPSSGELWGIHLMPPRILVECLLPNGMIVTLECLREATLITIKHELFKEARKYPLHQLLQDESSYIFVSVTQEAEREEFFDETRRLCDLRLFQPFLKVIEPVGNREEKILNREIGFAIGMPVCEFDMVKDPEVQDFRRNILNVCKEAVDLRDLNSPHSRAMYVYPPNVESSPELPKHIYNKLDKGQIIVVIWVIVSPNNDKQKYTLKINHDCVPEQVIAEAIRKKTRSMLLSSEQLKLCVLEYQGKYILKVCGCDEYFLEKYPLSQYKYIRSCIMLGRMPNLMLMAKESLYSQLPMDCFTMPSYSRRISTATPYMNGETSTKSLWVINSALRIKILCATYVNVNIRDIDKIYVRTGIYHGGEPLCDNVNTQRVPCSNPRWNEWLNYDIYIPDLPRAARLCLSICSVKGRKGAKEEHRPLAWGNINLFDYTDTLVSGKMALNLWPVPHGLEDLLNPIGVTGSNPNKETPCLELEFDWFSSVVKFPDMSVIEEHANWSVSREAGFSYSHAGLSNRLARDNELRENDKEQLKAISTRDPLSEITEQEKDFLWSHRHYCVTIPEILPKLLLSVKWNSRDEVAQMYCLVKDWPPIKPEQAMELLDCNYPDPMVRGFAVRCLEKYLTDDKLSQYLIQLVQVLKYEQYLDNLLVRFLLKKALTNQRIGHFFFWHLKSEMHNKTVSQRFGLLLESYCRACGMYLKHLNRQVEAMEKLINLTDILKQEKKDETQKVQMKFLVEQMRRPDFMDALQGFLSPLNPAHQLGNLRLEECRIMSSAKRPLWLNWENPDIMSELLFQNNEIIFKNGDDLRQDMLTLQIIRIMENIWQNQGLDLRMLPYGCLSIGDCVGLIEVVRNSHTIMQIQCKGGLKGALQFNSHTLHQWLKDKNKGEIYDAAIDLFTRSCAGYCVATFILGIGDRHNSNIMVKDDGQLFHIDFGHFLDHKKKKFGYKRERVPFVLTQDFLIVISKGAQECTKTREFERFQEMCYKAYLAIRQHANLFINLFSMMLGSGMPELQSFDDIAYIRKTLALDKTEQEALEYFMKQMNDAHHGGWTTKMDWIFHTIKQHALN
Sequence of FGFR1 (P11362 22-822): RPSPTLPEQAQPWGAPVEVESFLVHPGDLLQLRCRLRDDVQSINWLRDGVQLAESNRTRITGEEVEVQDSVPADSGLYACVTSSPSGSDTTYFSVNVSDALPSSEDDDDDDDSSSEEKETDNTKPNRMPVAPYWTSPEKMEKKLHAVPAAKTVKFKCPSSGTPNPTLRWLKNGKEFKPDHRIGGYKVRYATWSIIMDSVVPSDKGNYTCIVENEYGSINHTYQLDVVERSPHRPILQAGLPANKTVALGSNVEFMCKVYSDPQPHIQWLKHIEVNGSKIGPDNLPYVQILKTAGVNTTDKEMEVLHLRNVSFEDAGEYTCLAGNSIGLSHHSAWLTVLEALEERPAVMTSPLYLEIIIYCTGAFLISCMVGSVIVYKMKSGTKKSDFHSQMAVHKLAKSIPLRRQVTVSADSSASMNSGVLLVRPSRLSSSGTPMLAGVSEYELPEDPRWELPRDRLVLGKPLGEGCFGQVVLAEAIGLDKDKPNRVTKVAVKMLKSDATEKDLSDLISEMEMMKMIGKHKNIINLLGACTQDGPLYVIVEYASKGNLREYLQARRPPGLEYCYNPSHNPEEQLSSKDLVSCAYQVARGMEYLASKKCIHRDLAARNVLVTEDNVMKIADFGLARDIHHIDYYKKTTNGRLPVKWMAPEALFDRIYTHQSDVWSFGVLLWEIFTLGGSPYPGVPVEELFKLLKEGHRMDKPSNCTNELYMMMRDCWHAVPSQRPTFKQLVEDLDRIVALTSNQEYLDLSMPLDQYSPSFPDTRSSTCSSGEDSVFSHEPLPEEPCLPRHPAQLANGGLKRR
Sequence of EGFR(L858R, T790M) (P00533 25-1210 T790M/L858R): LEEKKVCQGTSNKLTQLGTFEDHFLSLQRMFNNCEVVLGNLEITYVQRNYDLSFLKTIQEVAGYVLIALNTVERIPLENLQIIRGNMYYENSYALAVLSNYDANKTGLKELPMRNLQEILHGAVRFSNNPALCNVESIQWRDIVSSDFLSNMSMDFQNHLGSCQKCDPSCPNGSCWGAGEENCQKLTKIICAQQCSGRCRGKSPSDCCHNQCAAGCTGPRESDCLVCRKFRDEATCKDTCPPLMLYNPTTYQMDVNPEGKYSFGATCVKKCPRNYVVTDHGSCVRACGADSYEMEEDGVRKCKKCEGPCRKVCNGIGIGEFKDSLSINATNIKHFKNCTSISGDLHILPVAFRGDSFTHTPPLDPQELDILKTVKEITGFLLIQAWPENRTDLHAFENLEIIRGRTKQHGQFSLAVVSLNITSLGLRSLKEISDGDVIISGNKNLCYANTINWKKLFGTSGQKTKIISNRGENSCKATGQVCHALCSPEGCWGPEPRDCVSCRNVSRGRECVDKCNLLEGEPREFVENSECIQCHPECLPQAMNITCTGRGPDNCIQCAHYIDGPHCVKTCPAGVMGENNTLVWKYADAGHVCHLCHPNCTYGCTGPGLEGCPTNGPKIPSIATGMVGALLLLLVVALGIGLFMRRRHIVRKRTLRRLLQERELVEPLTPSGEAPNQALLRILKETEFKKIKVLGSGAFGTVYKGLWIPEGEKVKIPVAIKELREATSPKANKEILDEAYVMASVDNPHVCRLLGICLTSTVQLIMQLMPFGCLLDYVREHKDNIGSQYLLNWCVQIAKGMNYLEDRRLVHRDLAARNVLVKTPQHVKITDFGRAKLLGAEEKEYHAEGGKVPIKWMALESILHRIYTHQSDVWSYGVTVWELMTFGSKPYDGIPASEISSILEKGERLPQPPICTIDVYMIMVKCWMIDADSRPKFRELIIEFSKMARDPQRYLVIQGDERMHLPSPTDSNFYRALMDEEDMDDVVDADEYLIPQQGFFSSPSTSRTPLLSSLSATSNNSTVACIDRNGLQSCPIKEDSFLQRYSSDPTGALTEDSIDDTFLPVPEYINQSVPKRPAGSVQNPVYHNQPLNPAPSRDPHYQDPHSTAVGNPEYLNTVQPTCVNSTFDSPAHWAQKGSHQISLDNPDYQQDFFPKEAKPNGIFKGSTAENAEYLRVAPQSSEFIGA
Sequence of PAK4 (O96013 whole entry): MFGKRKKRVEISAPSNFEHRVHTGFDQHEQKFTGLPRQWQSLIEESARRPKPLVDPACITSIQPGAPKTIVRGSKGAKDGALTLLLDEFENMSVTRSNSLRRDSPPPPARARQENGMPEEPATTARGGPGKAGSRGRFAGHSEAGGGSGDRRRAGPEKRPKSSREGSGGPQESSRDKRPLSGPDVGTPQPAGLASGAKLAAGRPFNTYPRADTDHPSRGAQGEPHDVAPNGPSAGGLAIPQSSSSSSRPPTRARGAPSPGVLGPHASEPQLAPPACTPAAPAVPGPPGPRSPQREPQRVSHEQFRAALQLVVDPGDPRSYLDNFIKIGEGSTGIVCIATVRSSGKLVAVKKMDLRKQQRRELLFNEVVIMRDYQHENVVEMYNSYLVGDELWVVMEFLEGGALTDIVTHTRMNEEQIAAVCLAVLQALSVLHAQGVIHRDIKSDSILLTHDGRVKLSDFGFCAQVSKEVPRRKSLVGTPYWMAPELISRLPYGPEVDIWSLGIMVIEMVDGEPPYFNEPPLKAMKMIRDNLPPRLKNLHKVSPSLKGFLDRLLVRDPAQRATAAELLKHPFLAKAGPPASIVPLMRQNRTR
Sequence of S6K1 (P23443 whole entry): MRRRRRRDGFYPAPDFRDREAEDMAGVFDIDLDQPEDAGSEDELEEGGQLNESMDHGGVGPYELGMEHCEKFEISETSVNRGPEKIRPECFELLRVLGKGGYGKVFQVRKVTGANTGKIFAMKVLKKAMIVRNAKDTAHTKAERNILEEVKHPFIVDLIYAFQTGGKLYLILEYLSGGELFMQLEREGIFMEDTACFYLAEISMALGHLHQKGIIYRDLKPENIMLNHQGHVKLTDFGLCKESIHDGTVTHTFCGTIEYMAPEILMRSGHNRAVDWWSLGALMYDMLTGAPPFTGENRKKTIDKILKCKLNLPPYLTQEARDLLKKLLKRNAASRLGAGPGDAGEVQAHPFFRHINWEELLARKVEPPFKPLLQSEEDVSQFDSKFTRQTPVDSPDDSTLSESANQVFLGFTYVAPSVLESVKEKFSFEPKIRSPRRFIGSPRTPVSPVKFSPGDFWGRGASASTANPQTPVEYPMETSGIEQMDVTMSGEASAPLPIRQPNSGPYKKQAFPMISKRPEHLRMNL
Sequence of TTK (P33981 whole entry): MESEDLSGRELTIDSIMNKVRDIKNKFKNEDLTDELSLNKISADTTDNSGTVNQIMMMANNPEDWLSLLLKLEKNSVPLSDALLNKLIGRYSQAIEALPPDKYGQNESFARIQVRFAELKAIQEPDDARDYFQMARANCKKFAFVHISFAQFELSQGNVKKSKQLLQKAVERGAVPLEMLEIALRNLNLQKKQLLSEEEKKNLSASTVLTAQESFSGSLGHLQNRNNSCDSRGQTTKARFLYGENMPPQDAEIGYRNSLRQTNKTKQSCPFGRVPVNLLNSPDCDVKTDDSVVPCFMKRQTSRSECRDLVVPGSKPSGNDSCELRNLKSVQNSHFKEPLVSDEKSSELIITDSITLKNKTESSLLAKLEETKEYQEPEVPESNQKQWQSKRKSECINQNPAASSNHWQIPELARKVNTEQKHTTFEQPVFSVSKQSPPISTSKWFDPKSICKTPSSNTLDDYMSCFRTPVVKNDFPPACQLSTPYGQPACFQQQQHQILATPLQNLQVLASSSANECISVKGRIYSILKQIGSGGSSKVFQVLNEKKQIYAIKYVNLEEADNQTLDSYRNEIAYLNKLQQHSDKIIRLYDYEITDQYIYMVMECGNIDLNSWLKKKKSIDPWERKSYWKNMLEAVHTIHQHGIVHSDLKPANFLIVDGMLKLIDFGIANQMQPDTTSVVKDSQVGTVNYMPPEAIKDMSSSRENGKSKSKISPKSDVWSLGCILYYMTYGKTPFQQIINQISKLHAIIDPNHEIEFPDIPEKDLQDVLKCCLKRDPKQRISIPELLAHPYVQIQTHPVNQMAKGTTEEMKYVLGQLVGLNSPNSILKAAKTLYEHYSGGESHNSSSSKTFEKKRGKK

How did the remaining binding at 10 µM [1] turn out when `O=C1CCC(N2C(=O)c3cccc(NCCCCCCCCNC(=O)N4CC[C@H](NC5=Nc6cc(F)ccc6N(CC(F)F)c6ccc(Cl)cc65)C4)c3C2=O)C(=O)N1` (stereo partly drawn) [BJG-05-039, (3S)-3-((2-Chloro-5-(2,2-difluoroethyl)-8-fluoro-5H-dibenzo[b,e][1,4]diazepin-11-yl)amino)-N-(8-((2-(2,6-dioxopiperidin-3-yl)-1,3-dioxoisoindolin-4-yl)amino)octyl)pyrrolidine-1-carboxamide] was run?
The remaining binding at 10 µM was 89%.

What about the remaining binding at 10 µM [2] of the same molecule?
Its remaining binding at 10 µM is 82%.

And the remaining binding at 10 µM [3]?
The remaining binding at 10 µM was 51%.

And the remaining binding at 10 µM [4]?
The remaining binding at 10 µM was 74%.

And the remaining binding at 10 µM [5]?
The remaining binding at 10 µM was 89%.

And the PAK2 degradation [6]?
Its PAK2 degradation is “not PAK2”.

And the remaining binding at 10 µM [7]?
The remaining binding at 10 µM was 57%.

What about the remaining binding at 10 µM [8] of the same molecule?
Its remaining binding at 10 µM is 100%.

What about the EC50 ([9]; first statement of b311) of the same molecule?
Its EC50 is 8.4 nM.

What about the EC50 ([9]; second listing of b311) of the same molecule?
The EC50 was 102 nM.

And the remaining binding at 10 µM [10]?
Its remaining binding at 10 µM is 82%.

And the remaining binding at 10 µM [11]?
The remaining binding at 10 µM was 61%.

And the remaining binding at 10 µM [12]?
Its remaining binding at 10 µM is 86%.

What about the remaining binding at 10 µM [13] of the same molecule?
Its remaining binding at 10 µM is 97%.

And the remaining binding at 10 µM [14]?
Its remaining binding at 10 µM is 95%.

What about the remaining binding at 10 µM [15] of the same molecule?
The remaining binding at 10 µM was 99%.

And the remaining binding at 10 µM [16]?
Its remaining binding at 10 µM is 60%.

What about the remaining binding at 10 µM [17] of the same molecule?
Its remaining binding at 10 µM is 97%.

What about the remaining binding at 10 µM [18] of the same molecule?
Its remaining binding at 10 µM is 55%.

And the remaining binding at 10 µM [19]?
Its remaining binding at 10 µM is 93%.

And the remaining binding at 10 µM [20]?
The remaining binding at 10 µM was 62%.

And the IC50 [21]?
Its IC50 is over 10000 nM.

And the remaining binding at 10 µM [22]?
Its remaining binding at 10 µM is 88%.

What about the remaining binding at 10 µM [23] of the same molecule?
Its remaining binding at 10 µM is 81%.

What about the remaining binding at 10 µM [24] of the same molecule?
Its remaining binding at 10 µM is 76%.

What about the remaining binding at 10 µM [25] of the same molecule?
Its remaining binding at 10 µM is 91%.

From US20250312462A1, “PAK1 DEGRADERS AND METHODS OF USE THEREOF” (INSTITUTE FOR CANCER RESEARCH D/B/A THE RESEARCH INSTITUTE …, priority 2022, published 2025)
